Data taken from patent US20120225889A1, “USE OF MACROCYCLIC LACTONE DERIVATIVES FOR THE TREATMENT OF INFLAMMATORY DISORDERS” (PIRAMAL LIFE SCIENCES LIMITED, priority 2010, published 2012).
Like-named read-outs stand apart in the source and are kept apart here.

Assays:
CEBPα = test: Gene expression profile using RTQ-PCR: CEBPα; assay type: cell-based, human; conditions: 3 μM
Description: The effect of the compound of example 7 was measured in stimulated untreated cells from the monocytic cell line (THP-1), human monocytes and synovial cells from rheumatoid arthritis patient. The effect of the compound in the THP-1 cell line was measured in terms of gene expression and was expressed as fold changes as compared to the cell stimulated control with no drug treatment.
THP-1 cells, human monocytes and synovial cells were treated with compound of example 7 or vehicle (0.5% DMSO). Total RNA isolation using a commercial RNA extraction kit (Qiagen Corporation, Germany) The first-strand cDNA was synthesized from total RNA using first strand cDNA synthesis kit from Invitrogen Corporation (California, USA). This was followed by real time quantitative polymerase chain reaction (RTQ PCR) using gene specific primers and standard thermal program of initial denaturation at 95° C. for 5 min and cycles of 95° C. for 10 seconds, followed by 60° C. for 30 seconds (Realplex PCR machine from Eppendorf, Germany). Quantitative measurement of products made during PCR cycles was normalized against a housekeeping gene (Actin) and was used to measure the gene expression as fold changes as compared to respective control.

TNF-α = test: hPBMC membrane-monocyte contact bioassay: TNF-α; assay type: cell-based, human; conditions: activated hPBMC membranes, 24 h
From the text: The assay was designed as in reference, Immunology Letters, 117, 114-118, (2008), the disclosure of which is incorporated by reference for the teaching of the assay. Activated T cell contact-mediated monocyte activation, leading to the production of proinflammatory cytokines (e.g., TNF-α, IL-6), contributes to the pathogenesis of chronic inflammatory diseases including rheumatoid arthritis.
6-well plates (Nunc, USA) were coated with Goat anti-Mouse IgG, Fc (Chemicon, USA) at a concentration of 16.5 μL/mL in coating buffer ([…] NaHCO3, 3.56 g Na2CO3, pH 9.5).
The plates were incubated overnight at 4° C. under sterile conditions. […]
Following incubation, hPBMCs in separate wells of the 6-well plate were harvested, pooled together, and centrifuged. […] The pellet of hPBMC membranes was resuspended in lysis buffer (Sigma, USA) and the protein concentration was determined by the method of Bradford (Sigma, USA).
100 μL monocytes per well at 5×10^5 cells/mL were added to the 96-well plate (Nunc, USA) and cultured for 48 h at 37° C. […] Supernatants were collected after 24 h and TNF-α and IL-6 production was measured using OptiEIA ELISA sets, (BD BioSciences, USA). […]

IL-2 = test: Cytokine release assay in hPBMCs: IL-2; assay type: cell-based; conditions: Homo sapiens
Description: hPBMCs were obtained from healthy donors by centrifugation of heparinized venous blood over Ficoll/Hypaque solution (Histopaque-1077, Sigma, USA). Isolated hPBMCs were suspended in RPMI 1640 culture medium supplemented with 10% FBS and seeded at a density of 50,000 cells/well in a 96-well plate (Nunc, USA). The cells were incubated at 37° C., 5% CO2 for a period of 24 h. These cells were used for the lymphocyte proliferation as well as cytokine release assay.
The plated cells were treated with different concentrations of the test compound (prepared as mM stock in DMSO and diluted with DMSO to achieve the following final concentrations in the assay: 100, 10, 1, 0.1, 0.01, 0.001, 0.0001, 0.00001 and 0.000001 μM) and incubated for 30 min. The cells were then stimulated with PHA (prepared as 1 mg/mL stock in RPMI 1640 culture medium and used at a final concentration of 5 μg/mL). FK506 was used as a standard. The plates were incubated at 37° C., 5% CO2 for 48 h. The cytokines in the supernatant collected were detected using ELISA kit (BD biosciences, USA). The cytokines evaluated in the assay were TNF-α, IL-2, IL-6, and IFN-γ.

C/C=C/C(O)C(C)/C=C/C(=N\O)C(C)C(O)C(C)C1OC(=O)/C(OC)=C/C(C)=C/C(C)C(O)C(CC)C(O)C(C)C/C(C)=C/C=C/C1OC (stereo not drawn) [Compound of example 7, (3Z,5E,13E,15E)-18-((5Z,6E,10E)-3,9-Dihydroxy-5-(hydroxymino)-4,8-dimethyldodeca-6,10-dien-2-yl)-9-ethyl-8,10-dihydroxy-3,17-dimethoxy-5,7,11,13-tetramethyl oxacyclooctadeca-3,5,13,15-tetraen-2-one]
CEBPα gene expression (CEBPα; Human monocytes, 3 h, ± SE, N = 3): −3.9 + 0.4 log fold change | CEBPα gene expression (CEBPα; Synovial cells, 12 h, N = 1): −2.4 log fold change | CEBPα gene expression (CEBPα; THP-1 cells, 12 h, ± SE, N = 3): −2.1 + 2.2 log fold change | inhibition of TNF-α production from monocytes (TNF-α): did not inhibit | IC50 (IL-2; Table 3: PHA-PMA induced hPBMC's, 48 h, read-out: IL-2 IC50): 0.005 µM | IC50 (IL-2; Table 4: mitogen stimulated production from hPBMC's, read-out: IL-2 (IC50 μM)): 0.007 µM
